Measured values from US9656945B2, “3-acyl-ingenols II” (LEO LABORATORIES LIMITED, priority 2010, dated 2017).
Like-named read-outs stand apart in the source and are kept apart here.

Assays:
Assay type in all cases: cell-based
[1] = system: Primary human epidermal keratinocytes, HeKa; assay: HeKa cytokine release (IL-8) assay
Protocol: Primary human epidermal keratinocytes, HeKa, were seeded (10.000 cells/well) in 96-well plates the day before the assay. Test compounds were diluted in DMSO (dimethyl sulfoxide) and further diluted in assay medium and pipetted into wells of 96 well-plates containing HeKa cells. The plates were incubated for 6 h at 37° C. in humidified air with 5% CO2. Plates are centrifuged briefly to spin down cells at 4° C., the supernatant was removed and analysed by Meso Scale Discovery (MSD) 4-spot cytokine assay (Pro-inflammatory II Ultra Sensitive kit, MSD, MD, USA). The MSD assay employs a sandwich immunoassay format where capture antibodies were coated in a patterned array on the bottom of the wells of a 4-Spot-Multi-MSD plate. Standard samples were incubated in the MULTI-SPOT plates as well, and the cytokine (IL-8) binds to its corresponding capture antibody spot. The cytokine level was quantitated on a SECTOR™ Imager using a cytokine-specific Detection Antibody labelled with MSD SULFO-TAG™ reagent.
(§1) Test compound titration curves were fitted to a four-parameter sigmoidal curve after normalizing the effect of the test compound to the effect of the positive control (1.5×10^−7 M PEP0005). Rel EC50 denotes the concentration of test compound producing an effect that is midway between the fitted top and bottom.

[2] = system: HeLa cells (ATCC CCL-002); assay: Necrosis assay; details: Homo sapiens, 0.5 h, read-out: HeLa necrosis EC50 range
Protocol: HeLa cells (ATCC CCL-002) were grown in minimal essential medium (Invitrogen catalog no. 42360) containing 10% fetal bovine serum, 100 IU/ml penicillin and 100 μg/ml streptomycin. 4,000-6,000 cells were seeded into 96-well black ViewPlates-plates, clear bottom, (Perkin Elmer) in 100 μl medium and incubated overnight. Compounds were dissolved and pre-diluted in DMSO in 96-well polypropylene plates (Greiner) in a concentration range of 15 μM to 600 μM. At the time of the experiment cell plates were placed on heating blocks at 37° C., medium was removed and 40 μl fresh, pre-warmed medium was added per well. Cells were incubated for 15 min before addition of compounds. In parallel, 3 μl of compounds were diluted with 197 μl growth medium on a Tecan freedom-EVO pipetting station using 250 μl/s pipetting speed, in order to ensure effective mixing of the highly concentrated compound solutions with the aqueous phase. These pre-dilution plates were then equilibrated on heating blocks at 37° C. for 10 min. 80 μl pre-diluted compound were transferred manually to the corresponding wells containing HeLa cells yielding compound concentrations of 10 μM to 400 μM. Control conditions were 1% DMSO in growth medium (100% viability) and 400 μM ingenol mebutate in growth medium (0% viability). Plates were incubated on the heating blocks at 37° C. for 30 min. At the end of the incubation 10 μl PrestoBlue reagent (Invitrogen) were added to each well, plates were sealed with black seal, followed by incubation at 37° C. for 10 min with gentle shaking (150 rpm). Subsequently, plates were placed at room temperature for 20-30 min. Plates were read immediately after on an Envision Fluorescence reader (Perkin Elmer) with excitation at 535 nm and emission at 630 nm. Test compound titration curves were fitted to a four-parameter sigmoidal curve after normalizing the effect of the test compound to the effect of the positive control (4 10^−4 M PEP0005/ingenol mebutate). AbsEC50 denotes the concentration of test compound producing 50% effect.

[3] = system: PMN's (polymorphonuclear leukocytes); assay: Neutrophil oxidative burst assay; details: Leukocyte, 40 min, read-out: Neutrophil oxidative burst Rel EC50 range
Protocol: PMN's (polymorphonuclear leukocytes) were isolated and purified from fresh buffy coats by sequential sedimentation, density centrifugation and lysis of contaminating erythrocytes. Buffy coats were incubated with 2% methocel for 30-45 min to differentially sediment red blood cells. The leukocyte-rich supernatant was transferred to lymphoprep tubes to remove mononuclear cells by density centrifugation (400×g, 30 min). The pellet was resuspended and any remaining erythrocytes lysed using 0.2% NaCl for 30 sec before restoring isotonicity by the addition of 1.2% NaCl. This step was repeated until the cell pellet appears relatively free of red blood cells. Cells were resuspended in DPBS (Dulbecco's Phosphate Buffered Saline) (w.o. Ca^2+, Mg^2+) and the concentration adjusted to 1.4×10^6 cells/ml in HBSS (Hanks Balanced Salt solution) (w Ca^2+, Mg^2+) containing 0.1% BSA (Bovine Serum Albumin) and 5 mM glucose just prior to assay initiation. Titrated reference and test compounds were pre-mixed with HE (Hydroethidine) (10 μM final assay concentration) before addition to 96-well plates containing 2.5×10^5 cells. Following 40 min incubation at RT, changes in the respiratory burst was estimated by measuring fluorescence at 579 nm (excitation: 485 nm) using an Envision plate reader.
as §1, with “(5×10^−7” for “(1.5×10^−7”, “bottom. Abs EC50 is the concentration of test compound that provokes a response corresponding to 50% of the maximal effect associated with the positive control (5×10^−7 M PEP0005).” for “bottom.”

[4] = 6 h, read-out: HeKa cytokine release (IL-8) Rel EC50 range
[5] = 6 h at 37° C., normalized to positive control 1.5×10^−7 M PEP0005, read-out: HeKa cytokine release (IL-8) Rel EC50 range
[6] = 30 min at 37° C., PrestoBlue, normalized to 4 10^−4 M PEP0005/ingenol mebutate
[7] = 40 min incubation at RT, normalized to positive control 5×10^−7 M PEP0005

SMILES | EC50 [1, 4] | EC50 [2] | EC50 [3] | EC50 [1, 5] | EC50 [2, 6] | EC50 [3, 7]
COc1cccc(NCc2ccccc2)c1C(=O)O[C@H]1C(C)=C[C@]23C(=O)[C@@H](C=C(CO)[C@@H](O)[C@]12O)[C@H]1[C@@H](C[C@H]3C)C1(C)C [Compound 333, Ingenol 3-(2-benzylamino-6-methoxy-benzoate)] | < 0.02 µM | < 150 µM | 0.02 to 0.1 µM |  |  | 
CNc1cccc(F)c1C(=O)O[C@H]1C(C)=C[C@]23C(=O)[C@@H](C=C(CO)[C@@H](O)[C@]12O)[C@H]1[C@@H](C[C@H]3C)C1(C)C [Compound 343, Ingenol 3-(2-fluoro-6-methylamino-benzoate)] | < 0.02 µM | < 150 µM | < 0.02 µM |  |  | 
CC1=C[C@]23C(=O)[C@@H](C=C(CO)[C@@H](O)[C@]2(O)[C@H]1OC(=O)c1ccc(F)cc1)[C@H]1[C@@H](C[C@H]3C)C1(C)C [Compound 311, Ingenol 3-(4-fluoro-benzoate)] | < 0.02 µM | < 150 µM | < 0.02 µM |  |  | 
CC1=C[C@]23C(=O)[C@@H](C=C(CO)[C@@H](O)[C@]2(O)[C@H]1OC(=O)C1CCCCC1)[C@H]1[C@@H](C[C@H]3C)C1(C)C [Compound 302, Ingenol 3-(cyclohexanecarboxylate)] | 0.02 to 0.1 µM | 150 to 350 µM | < 0.02 µM |  |  | 
CC1=C[C@]23C(=O)[C@@H](C=C(CO)[C@@H](O)[C@]2(O)[C@H]1OC(=O)c1ccccc1C(C)C)[C@H]1[C@@H](C[C@H]3C)C1(C)C [Compound 323, Ingenol 3-(2-isopropyl-benzoate)] | < 0.02 µM | < 150 µM | < 0.02 µM |  |  | 
COC(=O)C1(C(=O)O[C@H]2C(C)=C[C@]34C(=O)[C@@H](C=C(CO)[C@@H](O)[C@]23O)[C@H]2[C@@H](C[C@H]4C)C2(C)C)CC1 [Compound 306, Ingenol 3-(1-methoxycarbonyl-cyclopropylcarboxylate)] | > 0.1 µM | > 350 µM | 0.02 to 0.1 µM |  |  | 
COc1ccccc1C(=O)O[C@H]1C(C)=C[C@]23C(=O)[C@@H](C=C(CO)[C@@H](O)[C@]12O)[C@H]1[C@@H](C[C@H]3C)C1(C)C [Compound 312, Ingenol 3-(2-methoxy-benzoate)] | 0.02 to 0.1 µM | < 150 µM | < 0.02 µM |  |  | 
CNc1cccc(C)c1C(=O)O[C@H]1C(C)=C[C@]23C(=O)[C@@H](C=C(CO)[C@@H](O)[C@]12O)[C@H]1[C@@H](C[C@H]3C)C1(C)C [Compound 339, Ingenol 3-(2-methyl-6-methylamino-benzoate)] | < 0.02 µM | < 150 µM | 0.02 to 0.1 µM |  |  | 
CC1=C[C@]23C(=O)[C@@H](C=C(CO)[C@@H](O)[C@]2(O)[C@H]1OC(=O)c1ccccc1Nc1ccccc1)[C@H]1[C@@H](C[C@H]3C)C1(C)C [Compound 336, Ingenol 3-(2-phenylamino-benzoate)] | < 0.02 µM | < 150 µM | < 0.02 µM |  |  | 
CC1=C[C@]23C(=O)[C@@H](C=C(CO)[C@@H](O)[C@]2(O)[C@H]1OC(=O)c1c(N)cccc1F)[C@H]1[C@@H](C[C@H]3C)C1(C)C [Compound 341, Ingenol 3-(2-amino-6-fluoro-benzoate)] | < 0.02 µM | < 150 µM | < 0.02 µM |  |  | 
CC1=C[C@]23C(=O)[C@@H](C=C(CO)[C@@H](O)[C@]2(O)[C@H]1OC(=O)c1ccccc1N)[C@H]1[C@@H](C[C@H]3C)C1(C)C [Compound 330, Ingenol 3-(2-amino-benzoate)] |  |  |  | < 0.02 µM | 150 to 350 µM | < 0.02 µM
CNc1cccc(Cl)c1C(=O)O[C@H]1C(C)=C[C@]23C(=O)[C@@H](C=C(CO)[C@@H](O)[C@]12O)[C@H]1[C@@H](C[C@H]3C)C1(C)C [Compound 342, Ingenol 3-(2-chloro-6-methylamino-benzoate)] | < 0.02 µM | < 150 µM | 0.02 to 0.1 µM |  |  | 
CC1=C[C@]23C(=O)[C@@H](C=C(CO)[C@@H](O)[C@]2(O)[C@H]1OC(=O)c1c(C)cccc1N)[C@H]1[C@@H](C[C@H]3C)C1(C)C [Compound 335, Ingenol 3-(2-amino-6-methyl-benzoate)] | < 0.02 µM | < 150 µM | < 0.02 µM |  |  | 
CC1=C[C@]23C(=O)[C@@H](C=C(CO)[C@@H](O)[C@]2(O)[C@H]1OC(=O)c1ccc(F)cc1F)[C@H]1[C@@H](C[C@H]3C)C1(C)C [Compound 314, Ingenol 3-(2,4-difluoro-benzoate)] | < 0.02 µM | < 150 µM | < 0.02 µM |  |  | 
C/C=C(/C)C(=O)O[C@H]1C(C)=C[C@]23C(=O)[C@@H](C=C(CO)[C@@H](O)[C@]12O)[C@H]1[C@@H](C[C@H]3C)C1(C)C [Ingenol-3-angelate, reference compound] |  |  |  | < 0.02 µM | 150 to 350 µM | < 0.02 µM
CC1=C[C@]23C(=O)[C@@H](C=C(CO)[C@@H](O)[C@]2(O)[C@H]1OC(=O)C12C[C@@H]4CC1C[C@@H](C4)C2)[C@H]1[C@@H](C[C@H]3C)C1(C)C [Compound 307, Ingenol 3-(noradamantane-3-carboxylate)] | < 0.02 µM | 150 to 350 µM | < 0.02 µM |  |  | 
CC1=C[C@]23C(=O)[C@@H](C=C(CO)[C@@H](O)[C@]2(O)[C@H]1OC(=O)c1ccccc1Oc1ccccc1)[C@H]1[C@@H](C[C@H]3C)C1(C)C [Compound 322, Ingenol 3-(2-phenoxy-benzoate)] | < 0.02 µM | < 150 µM | < 0.02 µM |  |  | 
CC1=C[C@]23C(=O)[C@@H](C=C(CO)[C@@H](O)[C@]2(O)[C@H]1OC(=O)c1ccccc1-c1ccccc1)[C@H]1[C@@H](C[C@H]3C)C1(C)C [Compound 320, Ingenol 3-(2-phenyl-benzoate)] | < 0.02 µM | < 150 µM | < 0.02 µM |  |  | 
CC1=C[C@]23C(=O)[C@@H](C=C(CO)[C@@H](O)[C@]2(O)[C@H]1OC(=O)c1c(C)cccc1NCc1ccccc1)[C@H]1[C@@H](C[C@H]3C)C1(C)C [Compound 332, Ingenol 3-(2-benzylamino-6-methyl-benzoate)] | < 0.02 µM | < 150 µM | 0.02 to 0.1 µM |  |  | 
